Reference: ChEMBL document CHEMBL4819019, “Design, synthesis, antibacterial activity and toxicity of novel quaternary ammonium compounds based on pyridoxine and fatty acids” (Eur J Med Chem, 2021)
Activity calls are given as the source filed them. The calls are words filed in the database; no cut-off is given here.

Assays:
[1] = test system: Escherichia coli; test: Antibiofilm activity against biofilm-embedded Escherichia coli assessed as reduction in log CFU at 1 to 32 times of MBC measured after 24 hrs by drop plate assay; assay type: functional, organism-based
[2] = Genotoxicity in Salmonella typhimurium TA100 assessed as number of revertant by Ames spot test relative to solvent control; assay type: toxicity; conditions: salmonella enterica subsp. enterica serovar typhimurium
[3] = test system: Staphylococcus aureus; test: Antibiofilm activity against biofilm-embedded Staphylococcus aureus assessed as reduction in log CFU at 1 to 32 times of MBC measured after 24 hrs by drop plate assay; assay type: functional, organism-based
[4] = test system: Staphylococcus aureus; test: Antibacterial activity against clinical isolate methicillin-resistant Staphylococcus aureus 983 measured after 24 hrs by broth microdilution method; assay type: functional
[5] = Cytotoxicity against human HEK293 cells assessed as cell viability measured after 72 hrs by MTT assay; assay type: cell-based
[6] = test system: Staphylococcus aureus; test: Antibacterial activity against clinical isolate methicillin-resistant Staphylococcus aureus 1053 measured after 24 hrs by broth microdilution method; assay type: functional
[7] = test system: Staphylococcus intermedius; test: Antibacterial activity against clinical isolate methicillin-resistant Staphylococcus intermedius 1061 measured after 24 hrs by broth microdilution method; assay type: functional
[8] = test system: Cell membrane; test: Induction of cell membrane damage in Escherichia coli assessed as decrease in flourescence measured for 35 mins with 5 min interval by DioC2(3) based flourescence method
[9] = test system: Staphylococcus aureus; test: Antibacterial activity against clinical isolate Staphylococcus aureus 25 measured after 24 hrs by broth microdilution method; assay type: functional
[10] = test system: Staphylococcus aureus; test: Antibacterial activity against Staphylococcus aureus ATCC 29213 measured after 24 hrs by broth microdilution method; assay type: functional
[11] = test system: Staphylococcus aureus; test: Antibacterial activity against clinical isolate methicillin-resistant Staphylococcus aureus 1131 measured after 24 hrs by broth microdilution method; assay type: functional
[12] = test system: Escherichia coli; test: Antibacterial activity against Escherichia coli MG 1655 measured after 24 hrs by broth microdilution method; assay type: functional
[13] = Cytotoxicity against human skin fibroblasts assessed as cell viability measured after 72 hrs by MTT assay; assay type: cell-based, Fibroblast
[14] = Genotoxicity in Salmonella typhimurium TA98 assessed as number of revertant by Ames spot test relative to solvent control; assay type: toxicity; conditions: salmonella enterica subsp. enterica serovar typhimurium
[15] = test system: Staphylococcus intermedius; test: Antibacterial activity against clinical isolate methicillin-resistant Staphylococcus intermedius 1143 measured after 24 hrs by broth microdilution method; assay type: functional
[16] = Acute toxicity in C57BL/6CBA mouse assessed as pale kidneys at 2000 mg/kg, po after 7 days; assay type: organism-based; conditions: in vivo, 168 h, time 7 day
[17] = Acute toxicity in C57BL/6CBA mouse assessed as enlarged spleen at 2000 mg/kg, po after 7 days; assay type: organism-based; conditions: in vivo, 168 h, time 7 day
[18] = test system: Klebsiella pneumoniae; test: Antibacterial activity against clinical isolate Klebsiella pneumoniae 1813 measured after 24 hrs by broth microdilution method; assay type: functional
[19] = test system: Pseudomonas aeruginosa; test: Antibacterial activity against Pseudomonas aeruginosa ATCC 27853 measured after 24 hrs by broth microdilution method; assay type: functional
[20] = Genotoxicity in Salmonella typhimurium TA1535/pSK1002 assessed as DNA-damage activity by measuring beta-galactosidase activity at 150 ug/ml measured by SOS-chromotest relative to solvent control; assay type: toxicity; conditions: salmonella enterica subsp. enterica serovar typhimurium; dose 150 µg/ml
[21] = test system: Pseudomonas aeruginosa; test: Antibacterial activity against clinical isolate Pseudomonas aeruginosa 1945 measured after 24 hrs by broth microdilution method; assay type: functional
[22] = Acute toxicity in C57BL/6CBA mouse assessed as death at 2000 mg/kg, po after 7 days; assay type: organism-based; conditions: in vivo, 168 h, time 7 day
[23] = test system: Staphylococcus aureus; test: Antibacterial activity against clinical isolate methicillin-resistant Staphylococcus aureus 1065 measured after 24 hrs by broth microdilution method; assay type: functional
[24] = Antibiofilm activity against biofilm-embedded Staphylococcus aureus/Escherichia coli assessed as reduction in viable cells upto 512 mg/L measured after 24 hrs by drop plate based dual species biofilm assay; assay type: functional, cell-based; conditions: dose mg/L <=512, time 24.0 hrs
[25] = test system: Proteus sp.; test: Antibacterial activity against clinical isolate Proteus sp. 17 measured after 24 hrs by broth microdilution method; assay type: functional; conditions: Proteus sp. (in: enterobacteria)
[26] = test system: Staphylococcus ureilyticus; test: Antibacterial activity against clinical isolate Staphylococcus ureilyticus 1972 measured after 24 hrs by broth microdilution method; assay type: functional
[27] = test system: Micrococcus luteus; test: Antibiofilm activity against biofilm-embedded Micrococcus luteus assessed as reduction in log CFU at 1 to 32 times of MBC measured after 24 hrs by drop plate assay; assay type: functional, organism-based
[28] = test system: Escherichia coli; test: Antibacterial activity against Escherichia coli assessed as fold increase in MIC after 4 passages by serial dilution method; assay type: functional, organism-based; conditions: time 24.0 hrs
[29] = test system: Enterococcus faecalis; test: Antibacterial activity against clinical isolate Enterococcus faecalis 3063 measured after 24 hrs by broth microdilution method; assay type: functional
[30] = Lipophilicity, logP of the compound; assay type: physicochemical; conditions: octanol/water
[31] = test system: Staphylococcus aureus; test: Antibacterial activity against Staphylococcus aureus assessed as fold increase in MIC after 8 passages by serial dilution method; assay type: functional, organism-based; conditions: time 24.0 hrs
[32] = test system: Pseudomonas aeruginosa; test: Antibiofilm activity against biofilm-embedded Pseudomonas aeruginosa assessed as reduction in log CFU at 1 to 32 times of MBC measured after 24 hrs by drop plate assay; assay type: functional, organism-based
[33] = Acute toxicity in topically treated C57BL/6CBA mouse measured upto 14 days; conditions: in vivo, topical or ocular, time <=14 day
[34] = Acute toxicity in po dosed C57BL/6CBA mouse measured upto 7 days; assay type: organism-based; conditions: in vivo, time <=7 day
[35] = Genotoxicity in Salmonella typhimurium TA1535 assessed as number of revertant by Ames spot test relative to solvent control; assay type: toxicity; conditions: salmonella enterica subsp. enterica serovar typhimurium
[36] = test system: Serratia marcescens; test: Antibacterial activity against clinical isolate Serratia marcescens 1966 measured after 24 hrs by broth microdilution method; assay type: functional
[37] = test system: Pseudomonas sp.; test: Antibacterial activity against clinical isolate Pseudomonas sp. 5 measured after 24 hrs by broth microdilution method; assay type: functional
[38] = test system: Acinetobacter sp.; test: Antibacterial activity against clinical isolate Acinetobacter sp. 3 measured after 24 hrs by broth microdilution method; assay type: functional
[39] = Acute toxicity in C57BL/6CBA mouse assessed as pale liver at 2000 mg/kg, po after 7 days; assay type: organism-based; conditions: in vivo, 168 h, time 7 day
[40] = Acute toxicity in topically treated C57BL/6CBA mouse assessed as death measured at 2500 mg/kg treated as single topically measured after 14 days; assay type: organism-based; conditions: in vivo, topical_or_ocular, 336 h, time 14 day
[41] = test system: Moraxella; test: Antibacterial activity against clinical isolate Moraxella 765 measured after 24 hrs by broth microdilution method; assay type: functional
[42] = test system: Klebsiella sp.; test: Antibacterial activity against clinical isolate Klebsiella sp. 11 measured after 24 hrs by broth microdilution method; assay type: functional
[43] = test system: Escherichia coli; test: Antibacterial activity against clinical isolate Escherichia coli 718 measured after 24 hrs by broth microdilution method; assay type: functional
[44] = test system: Cell membrane; test: Induction of cell membrane damage in Staphylococcus aureus assessed as decrease in flourescence measured for 35 mins with 5 min interval by DioC2(3) based flourescence method
[45] = test system: Micrococcus luteus; test: Antibacterial activity against Micrococcus luteus clinical isolate measured after 24 hrs by broth microdilution method; assay type: functional
[46] = Genotoxicity in Salmonella typhimurium TA1535/pSK1002 assessed as DNA-damage activity by measuring beta-galactosidase activity at 750 ug/ml measured by SOS-chromotest relative to solvent control; assay type: toxicity; conditions: salmonella enterica subsp. enterica serovar typhimurium; dose 750 µg/ml
[47] = Genotoxicity in Salmonella typhimurium TA1535/pSK1002 assessed as DNA-damage activity by measuring beta-galactosidase activity at 15 ug/ml measured by SOS-chromotest relative to solvent control; assay type: toxicity; conditions: salmonella enterica subsp. enterica serovar typhimurium; dose 15 µg/ml
[48] = Antibiofilm activity against biofilm-embedded Staphylococcus aureus/Pseudomonas aeruginosa assessed as reduction in viable cells upto 512 mg/L measured after 24 hrs by drop plate based dual species biofilm assay; assay type: functional, cell-based; conditions: dose mg/L <=512, time 24.0 hrs
[49] = test system: Staphylococcus aureus; test: Antibacterial activity against clinical isolate methicillin-resistant Staphylococcus aureus 713 measured after 24 hrs by broth microdilution method; assay type: functional
[50] = Acute toxicity in C57BL/6CBA mouse assessed as necropsy measured at 2500 mg/kg treated as single topically measured after 14 days; assay type: organism-based; conditions: in vivo, topical_or_ocular, 336 h, time 14 day
[51] = test system: Bacillus subtilis; test: Antibacterial activity against Bacillus subtilis 168 measured after 24 hrs by broth microdilution method; assay type: functional
[52] = Cytotoxicity against human mesenchymal stem cells assessed as cell viability measured after 72 hrs by MTT assay; assay type: cell-based
[53] = test system: Enterococcus faecalis; test: Antibacterial activity against clinical isolate Enterococcus faecalis 23 measured after 24 hrs by broth microdilution method; assay type: functional
[54] = Genotoxicity in Salmonella typhimurium TA1535/pSK1002 assessed as DNA-damage activity by measuring beta-galactosidase activity at 7.5 ug/ml measured by SOS-chromotest relative to solvent control; assay type: toxicity; conditions: salmonella enterica subsp. enterica serovar typhimurium; dose 7.5 µg/ml
[55] = Genotoxicity in Salmonella typhimurium TA1537 assessed as number of revertant by Ames spot test relative to solvent control; assay type: toxicity; conditions: salmonella enterica subsp. enterica serovar typhimurium
[56] = Genotoxicity in Salmonella typhimurium TA1535/pSK1002 assessed as DNA-damage activity by measuring beta-galactosidase activity at 75 ug/ml measured by SOS-chromotest relative to solvent control; assay type: toxicity; conditions: salmonella enterica subsp. enterica serovar typhimurium; dose 75 µg/ml
[57] = Acute toxicity in C57BL/6CBA mouse assessed pale gastric mucosa at 2000 mg/kg, po after 7 days; assay type: organism-based; conditions: in vivo, 168 h, time 7 day

CCCCCCCCCCCC(=O)NCC[N+](C)(C)Cc1cnc(C)c2c1COC(C)(CCC)O2.[Cl-] (stereo not given)
Activity [1]: Active | Ratio [2]: 1.1 | Activity [3]: Active | MIC [4]: 16 µg/mL | CC50 at 72 h [5]: 0.15 µg/mL | MIC [6]: 2 µg/mL | MIC [7]: 4 µg/mL | Activity [8]: Dose-Dependent Effect | MIC [9]: 2 µg/mL | MIC [10]: 1 µg/mL | MIC [11]: 4 µg/mL | MIC [12]: 4 µg/mL | CC50 at 72 h [13]: 1.79 µg/mL | Ratio [14]: 1.9 | MIC [15]: 4 µg/mL | Activity [16]: Toxic | Activity [17]: Toxic | MIC [18]: 16 µg/mL | MIC [19]: 32 µg/mL | Ratio [20]: 0.5 | MIC [21]: 64 µg/mL | Activity [22]: Toxic | MIC [23]: 2 µg/mL | Activity [24]: inactive | MIC [25]: > 64 µg/mL | MIC [26]: 64 µg/mL | Activity [27]: Active | Activity [28]: Toxic | MIC [29]: 2 µg/mL | logP [30]: 1.35 | Activity [31]: Active | Activity [32]: Active | LD50 at 336 h [33]: > 2500 mg/kg | LD50 at 168 h [34]: > 2000 mg/kg | Ratio [35]: 0.5 | MIC [36]: 64 µg/mL | MIC [37]: 32 µg/mL | MIC [38]: 32 µg/mL | Activity [39]: Toxic | Activity [40]: Non-Toxic | MIC [41]: 16 µg/mL | MIC [42]: 16 µg/mL | MIC [43]: 8 µg/mL | Activity [44]: Dose-Dependent Effect | MIC [45]: 2 µg/mL | Ratio [46]: 0.3 | Ratio [47]: 1.6 | Activity [48]: inactive | MIC [49]: 4 µg/mL | Activity [50]: Non-Toxic | MIC [51]: 2 µg/mL | CC50 at 72 h [52]: 1.15 µg/mL | MIC [53]: 2 µg/mL | Ratio [54]: 1.6 | Ratio [55]: 0.03 | Ratio [56]: 0.7

CCCCCCCCCCCCCC(=O)NCC[N+](C)(C)Cc1nc(C)c2c(c1CO)COC(C)(C)O2.[Cl-]
Activity [1]: Active | Ratio [2]: 1.7 | Activity [3]: Active | MIC [4]: 32 µg/mL | CC50 at 72 h [5]: 1.32 µg/mL | MIC [6]: 4 µg/mL | MIC [7]: 4 µg/mL | Activity [8]: Dose-Dependent Effect | MIC [9]: 2 µg/mL | MIC [10]: 1 µg/mL | MIC [11]: 4 µg/mL | MIC [12]: 8 µg/mL | CC50 at 72 h [13]: 3.21 µg/mL | Ratio [14]: 1.9 | MIC [15]: 4 µg/mL | Activity [16]: Toxic | MIC [18]: 2 µg/mL | MIC [19]: > 64 µg/mL | Ratio [20]: 0.7 | MIC [21]: 32 µg/mL | MIC [23]: 2 µg/mL | Activity [24]: inactive | Activity [57]: Toxic | MIC [25]: > 64 µg/mL | MIC [26]: > 64 µg/mL | Activity [27]: Active | MIC [28]: Active | MIC [29]: 1 µg/mL | logP [30]: 0.73 | MIC [31]: Active | Activity [32]: Active | LD50 at 336 h [33]: > 2500 mg/kg | LD50 at 168 h [34]: > 2000 mg/kg | Ratio [35]: 1.1 | MIC [36]: > 64 µg/mL | MIC [37]: 32 µg/mL | MIC [38]: 32 µg/mL | Activity [40]: Non-Toxic | MIC [41]: 64 µg/mL | MIC [42]: 32 µg/mL | MIC [43]: 16 µg/mL | Activity [44]: Dose-Dependent Effect | MIC [45]: 2 µg/mL | Ratio [46]: 0.4 | Ratio [47]: 1.8 | Activity [48]: inactive | MIC [49]: 4 µg/mL | Activity [50]: Non-Toxic | MIC [51]: 1 µg/mL | CC50 at 72 h [52]: 1.74 µg/mL | MIC [53]: 1 µg/mL | Ratio [54]: 1.6 | Ratio [55]: 0.01 | Ratio [56]: 0.7
